Measured values reported in patent US20210255193A1, “LYSINE REACTIVE PROBES AND USES THEREOF” (The Scripps Research Institute, priority 2017, published 2021).
Each block holds one molecule with its values, some of them ahead of it.

Assays:
Assay in all cases: competitive isoTOP-ABPP
Type in all cases: binding
[1] = target: T1, ATP6V1F V-type proton ATPase subunit F (Homo sapiens, UniProt Q16864)
T1 construct: isoTOP-ABPP experiments performed in cell lysates (in vitro); endogenous in cells; host or cells: soluble proteome of human cancer cell lines (MDA-MB-231; Ramos and Jurkat also prepared)
T1 sequence (Q16864 whole entry): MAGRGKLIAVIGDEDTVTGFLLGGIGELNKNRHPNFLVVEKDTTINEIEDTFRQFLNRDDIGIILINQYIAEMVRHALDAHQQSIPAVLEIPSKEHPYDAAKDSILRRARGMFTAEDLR
Summary of the method: (§1)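 Readout: isotopic light/heavy MS1 peak-area ratio (R, DMSO heavy over compound light), median across peptides sharing a modified lysine. Lysate received fragment (activated esters 50 μM, guanidinylating agents 100 μM final) or DMSO, then 0.1 mM STP-alkyne probe for 1 h at ambient temperature.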

FAM136A Protein FAM136A = target: T2, FAM136A Protein FAM136A (Homo sapiens, UniProt Q96C01)
T2 construct: isoTOP-ABPP experiments performed in cell lysates (in vitro); endogenous in cells; host or cells: soluble proteome of human cancer cell lines (MDA-MB-231; Ramos and Jurkat also prepared)
T2 sequence (Q96C01 whole entry): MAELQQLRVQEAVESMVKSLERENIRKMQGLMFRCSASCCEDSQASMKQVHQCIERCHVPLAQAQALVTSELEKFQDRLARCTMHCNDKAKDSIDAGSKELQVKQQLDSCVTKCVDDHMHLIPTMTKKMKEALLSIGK
Summary of the method: as §1

TTR Transthyretin = target: T3, TTR Transthyretin (Homo sapiens, UniProt P02766); conditions: for isoTOP-ABPP ratio (R) at liganded lysine P02766_K35: sol, 231
T3 construct: isoTOP-ABPP experiments performed in cell lysates (in vitro); endogenous in cells; host or cells: MDA-MB-231 soluble lysate
Summary of the method: as §1

[2] = target: T4, KIAA1033 WASH complex subunit 7 (Homo sapiens, UniProt Q2M389)
T4 construct: isoTOP-ABPP experiments performed in cell lysates (in vitro); endogenous in cells; host or cells: soluble proteome of human cancer cell lines (MDA-MB-231; Ramos and Jurkat also prepared)
T4 sequence (Q2M389 1-1173): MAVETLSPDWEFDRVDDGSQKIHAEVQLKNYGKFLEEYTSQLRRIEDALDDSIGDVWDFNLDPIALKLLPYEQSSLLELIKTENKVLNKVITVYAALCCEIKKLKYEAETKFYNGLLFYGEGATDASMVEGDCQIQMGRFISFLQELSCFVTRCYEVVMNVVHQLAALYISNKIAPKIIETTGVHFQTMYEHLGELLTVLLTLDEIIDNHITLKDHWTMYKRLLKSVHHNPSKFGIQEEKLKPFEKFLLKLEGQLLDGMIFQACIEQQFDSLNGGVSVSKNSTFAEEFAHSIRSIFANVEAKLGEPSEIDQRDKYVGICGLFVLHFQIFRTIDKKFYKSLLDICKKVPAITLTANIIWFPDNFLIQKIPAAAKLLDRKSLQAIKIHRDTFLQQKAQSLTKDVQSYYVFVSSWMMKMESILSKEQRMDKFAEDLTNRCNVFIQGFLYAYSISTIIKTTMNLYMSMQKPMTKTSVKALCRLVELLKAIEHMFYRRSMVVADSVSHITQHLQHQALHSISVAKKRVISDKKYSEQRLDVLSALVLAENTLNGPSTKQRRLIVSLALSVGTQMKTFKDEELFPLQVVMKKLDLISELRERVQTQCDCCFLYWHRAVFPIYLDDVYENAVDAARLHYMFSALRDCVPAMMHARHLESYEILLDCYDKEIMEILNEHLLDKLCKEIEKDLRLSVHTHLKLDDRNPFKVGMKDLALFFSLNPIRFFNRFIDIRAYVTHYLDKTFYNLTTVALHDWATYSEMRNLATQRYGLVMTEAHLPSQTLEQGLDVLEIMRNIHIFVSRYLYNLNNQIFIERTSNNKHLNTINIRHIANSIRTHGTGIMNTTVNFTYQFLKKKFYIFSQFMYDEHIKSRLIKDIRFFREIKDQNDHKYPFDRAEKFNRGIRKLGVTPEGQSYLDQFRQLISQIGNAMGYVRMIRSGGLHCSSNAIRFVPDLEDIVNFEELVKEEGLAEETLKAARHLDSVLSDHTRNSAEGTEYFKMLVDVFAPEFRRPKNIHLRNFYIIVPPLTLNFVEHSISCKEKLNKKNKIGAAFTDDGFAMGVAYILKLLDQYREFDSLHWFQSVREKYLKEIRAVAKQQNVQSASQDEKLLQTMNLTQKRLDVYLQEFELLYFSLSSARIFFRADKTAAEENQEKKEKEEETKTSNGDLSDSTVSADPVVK
Summary of the method: as §1

R value (DMSO/fragment) for probe 1 labeling ([1]; Q16864_K6, 50 uM, 231 sol, in vitro): 1.1
R value (DMSO/fragment) for probe 1 labeling (FAM136A Protein FAM136A; Q96C01_K99, 50 uM, 231 sol, in vitro): 1.1
R value (DMSO/fragment) for probe 1 labeling (TTR Transthyretin; P02766_K35, 50 uM, 231 sol, in vitro): 2.6
Structure (SMILES): O=C(Oc1c(F)c(F)c(F)c(F)c1F)c1cc(C(F)(F)F)cc(C(F)(F)F)c1 [fragment 21, Pentafluorophenyl 3,5-bis(trifluoromethyl)benzoate]

Structure (SMILES): Cn1cc(CC(=O)Oc2ccc([N+](=O)[O-])cc2[N+](=O)[O-])c2ccccc21 [fragment 32, 2,4-Dinitrophenyl 2-(1-methyl-1H-indol-3-yl)acetate]
isoTOP-ABPP reactivity ratio at lysine Q96C01_K99 (FAM136A Protein FAM136A; 50 uM, 231 sol, in vitro): 0.9
isoTOP-ABPP reactivity ratio at lysine P02766_K35 (TTR Transthyretin; 50 uM, 231 sol, in vitro): 3.1

isoTOP-ABPP reactivity ratio at lysine Q2M389_K302 ([2]; 50 uM, 231 sol, in vitro): 1.0
Structure (SMILES): O=C(Oc1c(F)c(F)c(F)c(F)c1F)C1CCN(C(=O)OCc2ccccc2)CC1 [fragment 24, 1-Benzyl 4-(pentafluorophenyl) piperidine-1,4-dicarboxylate]

isoTOP-ABPP ratio, lysine Q2M389_K302 ([2]; 50 uM_231_sol_in vitro): 1.5
Structure (SMILES): NC(=O)c1cc(C(F)(F)F)cc(C(F)(F)F)c1 [fragment 51, reference compound]

Structure (SMILES): N#Cc1ccc(C(=O)Oc2ccc([N+](=O)[O-])cc2[N+](=O)[O-])cc1 [fragment 44, 2,4-Dinitrophenyl 4-cyanobenzoate]
isoTOP-ABPP ratio, lysine Q16864_K6 ([1]; 50 uM_231_sol_in vitro): 1.2
isoTOP-ABPP ratio, lysine Q2M389_K302 ([2]; 50 uM_231_sol_in vitro): 1.3
isoTOP-ABPP ratio, lysine P02766_K35 (TTR Transthyretin; 50 uM_231_sol_in vitro): 20.0

isoTOP-ABPP reactivity ratio at lysine Q96C01_K99 (FAM136A Protein FAM136A; 50 uM, 231 sol, in vitro): 0.9
isoTOP-ABPP reactivity ratio at lysine Q2M389_K302 ([2]; 50 uM, 231 sol, in vitro): 1.8
Structure (SMILES): O=C(CCc1coc2cc(F)ccc2c1=O)Oc1c(F)c(F)c(F)c(F)c1F [fragment 26, Pentafluorophenyl 3-(7-fluoro-4-oxo-4H-chromen-3-yl)propanoate]

Structure (SMILES): O=C(Oc1ccc([N+](=O)[O-])cc1[N+](=O)[O-])C1CCN(C(=O)OCc2ccccc2)CC1 [fragment 34, 1-Benzyl 4-(2,4-dinitrophenyl) piperidine-1,4-dicarboxylate]
isoTOP-ABPP ratio (R) at liganded lysine Q96C01_K99 (FAM136A Protein FAM136A; 50 uM, in vitro, sol, 231): 1.2
isoTOP-ABPP ratio (R) at liganded lysine P02766_K35 (TTR Transthyretin; 50 uM, in vitro): 2.2

Structure (SMILES): O=C(CC12CC3CC(CC(C3)C1)C2)Oc1ccc([N+](=O)[O-])cc1[N+](=O)[O-] [fragment 38, 2,4-Dinitrophenyl 2-(adamantan-1-yl)acetate]
isoTOP-ABPP ratio (R) at liganded lysine Q16864_K6 ([1]; 50 uM, in vitro, sol, 231): 1.0
isoTOP-ABPP ratio (R) at liganded lysine P02766_K35 (TTR Transthyretin; 50 uM, in vitro): 1.2

isoTOP-ABPP ratio, lysine Q16864_K6 ([1]; 100 uM_231_sol_in vitro): 1.4
isoTOP-ABPP ratio, lysine Q2M389_K302 ([2]; 100 uM_231_sol_in vitro): 5.3
isoTOP-ABPP ratio, lysine P02766_K35 (TTR Transthyretin; 100 uM_231_sol_in vitro): 2.1
Structure (SMILES): CC(C)(C)OC(=O)N=C(NC(=O)OC(C)(C)C)n1cccn1 [fragment 50, reference compound]

isoTOP-ABPP ratio, lysine Q96C01_K99 (FAM136A Protein FAM136A; 50 uM_231_sol_in vitro): 0.7
isoTOP-ABPP ratio, lysine P02766_K35 (TTR Transthyretin; 50 uM_231_sol_in vitro): 1.6
Structure (SMILES): O=C(Oc1c(F)c(F)c(C(F)(F)F)c(F)c1F)c1cc(C(F)(F)F)cc(C(F)(F)F)c1 [fragment 47, 2,3,5,6-Tetrafluoro-4-(trifluoromethyl)phenyl 3,5-bis(trifluoromethyl)benzoate]

isoTOP-ABPP ratio, lysine Q16864_K6 ([1]; 100 uM_231_sol_in vitro): 1.3
isoTOP-ABPP ratio, lysine Q96C01_K99 (FAM136A Protein FAM136A; 100 uM_231_sol_in vitro): 1.3
Structure (SMILES): COC(=O)NC(=NC(=O)OCC1c2ccccc2-c2ccccc21)n1cccn1 [fragment 49, N-Methoxycarbonyl-N′-9-fluorenylmethoxycarbonyl-pyrazole-1-carboxamidine]

R value (DMSO/fragment) for probe 1 labeling ([2]; Q2M389_K302, 50 uM, 231 sol, in vitro): 0.8
Structure (SMILES): O=C(CCc1cn(-c2ccccc2)nc1-c1ccccc1)Oc1c(F)c(F)c(F)c(F)c1F [fragment 19, Pentafluorophenyl 3-(1,3-diphenyl-1H-pyrazol-4-yl)propanoate]

isoTOP-ABPP ratio, lysine Q96C01_K99 (FAM136A Protein FAM136A; 50 uM_231_sol_in vitro): 5.5
Structure (SMILES): O=C(Oc1c(F)c(F)cc(F)c1F)c1cc(C(F)(F)F)cc(C(F)(F)F)c1 [fragment 48, 2,3,5,6-Tetrafluorophenyl 3,5-bis(trifluoromethyl)benzoate]
